Results: ChEMBL document CHEMBL4665749, “Usnic Acid Conjugates with Monoterpenoids as Potent Tyrosyl-DNA Phosphodiesterase 1 Inhibitors” (J Nat Prod, 2020)

Legend:
[1] = molecular target: Tyrosyl-DNA phosphodiesterase 1 (Homo sapiens, UniProt Q9NUW8); assay: Inhibition of recombinant TDP1 (unknown origin) expressed in Escherichia coli using 5'-FAM/3'-BHQ1 tagged oligonucleotide as substrate by fluorescence assay
[2] = test system: HeLa; assay: Cytotoxicity against human HeLa cells assessed as reduction in cell viability after 3 days by fluorometric assay; type: functional; settings: 72 h
[3] = test system: HeLa; assay: Potency index, ratio of CC50 of topotecan to CC50 of compound for human HeLa cells assessed as reduction in cell viability after 3 days in presence of topotecan by fluorometric assay; type: functional
[4] = test system: HeLa; assay: Cytotoxicity against human HeLa cells assessed as reduction in cell viability after 3 days in presence of topotecan by fluorometric assay; type: functional; settings: 72 h

Chain of Tyrosyl-DNA phosphodiesterase 1 (Q9NUW8 whole entry): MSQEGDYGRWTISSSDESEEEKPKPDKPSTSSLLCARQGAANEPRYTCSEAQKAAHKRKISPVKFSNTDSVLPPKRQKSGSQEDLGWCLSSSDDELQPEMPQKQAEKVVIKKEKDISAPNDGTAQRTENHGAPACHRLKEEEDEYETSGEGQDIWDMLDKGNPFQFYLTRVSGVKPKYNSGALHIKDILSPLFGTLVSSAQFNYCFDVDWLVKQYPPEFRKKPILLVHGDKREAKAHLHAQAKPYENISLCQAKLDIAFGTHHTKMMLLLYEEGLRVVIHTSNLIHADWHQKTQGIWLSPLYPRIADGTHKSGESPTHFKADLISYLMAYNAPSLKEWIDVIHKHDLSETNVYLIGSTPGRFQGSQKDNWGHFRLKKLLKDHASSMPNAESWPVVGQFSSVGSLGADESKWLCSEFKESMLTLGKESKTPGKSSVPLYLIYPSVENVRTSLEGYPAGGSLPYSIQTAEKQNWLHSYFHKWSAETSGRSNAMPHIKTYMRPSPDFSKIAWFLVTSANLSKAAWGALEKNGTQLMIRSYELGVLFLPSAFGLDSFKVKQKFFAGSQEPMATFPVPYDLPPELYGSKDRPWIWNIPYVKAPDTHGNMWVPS

In the case of `CCCCCCCC=NNc1nc(-c2c(O)c(C)c(O)c3c2OC2=CC(O)=C(C(C)=O)C(=O)[C@@]23C)cs1`, the IC50 [1] is reported as 0.088 µM and the CC50 [2] is reported as 20 µM.
For `CC(=O)C1=C(O)C=C2Oc3c(-c4csc(N/N=C5/C[C@H]6CC[C@]5(C)C6(C)C)n4)c(O)c(C)c(O)c3[C@@]2(C)C1=O`, the Ratio [3] was 1.7, the IC50 [1] was 0.031 µM and the CC50 [2] was 20 µM. It also gave a CC50 [4] of 2.7 µM.
`CC(=O)C1=C(O)C=C2Oc3c(-c4csc(NN=CCC(C)CCC=C(C)C)n4)c(O)c(C)c(O)c3[C@@]2(C)C1=O` (stereo not given in full) gave a Ratio [3] of 7.1, an IC50 [1] of 0.0164 µM and a CC50 [2] of 20 µM. It also gave a CC50 [4] of 0.63 µM.
For `CC(=O)C1=C(O)C=C2Oc3c(-c4csc(N/N=C\C5=C[C@@H]6C[C@H](C5)C6(C)C)n4)c(O)c(C)c(O)c3[C@@]2(C)C1=O`, the Ratio [3] was 1.7, the IC50 [1] was 0.045 µM and the CC50 [2] was > 100 µM. The CC50 [4] was 2.7 µM.
Work on `CC(=O)C1=C(O)C=C2Oc3c(-c4csc(NN=CCC(C)CCCC(C)(C)O)n4)c(O)c(C)c(O)c3[C@@]2(C)C1=O` (stereo not given in full) yielded an IC50 [1] of 0.139 µM and a CC50 [2] of 20 µM.
For `C=C(C)[C@H]1CC=C(/C=N\Nc2nc(-c3c(O)c(C)c(O)c4c3OC3=CC(O)=C(C(C)=O)C(=O)[C@@]34C)cs2)CC1`, the Ratio [3] was 3.8, the IC50 [1] was 0.027 µM and the CC50 [2] was 20 µM. It also gave a CC50 [4] of 1.2 µM.
`CC(=O)C1=C(O)C=C2Oc3c(-c4csc(NN=C5C=C(C)[C@H]6C[C@@H]5C6(C)C)n4)c(O)c(C)c(O)c3[C@@]2(C)C1=O` (mixture of isomers) gave a Ratio [3] of 1.3, an IC50 [1] of 0.046 µM and a CC50 [2] of 20 µM. It also gave a CC50 [4] of 3.5 µM.
For `CC[C@@]1(O)C(=O)OCc2c1cc1n(c2=O)Cc2cc3c(CN(C)C)c(O)ccc3nc2-1` [TOPOTECAN], the CC50 [2] was 4.5 µM.
